Measured values taken from ChEMBL document CHEMBL5029167, “Development of Asialoglycoprotein-Mediated Hepatocyte-Targeting Antitumor Prodrugs Triggered by Glutathione” (J Med Chem, 2021).
Activity calls are given as the source filed them. The calls are words filed in the database; no cut-off is given here.

Key:
[1] = Drug uptake in human A549 cells at 10 uM after 15 mins by confocal scanning microscopic analysis; type: ADME, cell-based; conditions: a549, 0.25 h
[2] = Drug uptake in human HeLa cells at 10 uM after 15 mins by confocal scanning microscopic analysis; type: ADME, cell-based; conditions: 0.25 h
[3] = Drug uptake in human SGC-7901 cells at 10 uM after 15 mins by confocal scanning microscopic analysis; type: ADME, cell-based; conditions: sgc-7901, 0.25 h
[4] = Drug uptake in human HepG2 cells at 10 uM after 15 mins by confocal scanning microscopic analysis; type: ADME, cell-based; conditions: hepg2, 0.25 h
[5] = Prodrug release at pH 6.5 assessed as stability after 48 hrs in absence of GSH by LC-MS analysis; type: ADME; conditions: pH 6.5, 48 h
[6] = Prodrug release at pH 7.4 assessed as stability after 48 hrs in absence of GSH by LC-MS analysis; type: ADME; conditions: pH 7.4, 48 h
[7] = Toxicity in Kunming mouse implanted with mouse H22 cells assessed as change in body weight at 10 mg/kg after 7 days; type: organism-based; conditions: in vivo, 168 h, time 7 day
[8] = Toxicity in Kunming mouse implanted with mouse H22 cells assessed as change in organ weight at 10 mg/kg after 7 days; type: organism-based; conditions: in vivo, 168 h, time 7 day
[9] = Toxicity in Kunming mouse assessed as change in organ weight at 50 mg/kg; type: organism-based; conditions: in vivo
[10] = Toxicity in Kunming mouse assessed as change in body weight at 50 mg/kg; type: organism-based; conditions: in vivo
[11] = Prodrug release at pH 6.5 assessed as stability after 120 mins in presence of GSH by LC-MS analysis; type: ADME; conditions: pH 6.5, 2 h
[12] = Drug uptake in human HepG2 cells pretreated with galactose for 30 mins followed by compound addition and measured after 15 mins by confocal scanning microscopic analysis; type: ADME, cell-based; conditions: hepg2, 0.75 h, time 45 min
[13] = Drug distribution in Kunming mouse liver at 10 mg/kg, iv measured after 3 hrs by confocal scanning microscopic analysis; type: ADME, organism-based; conditions: in vivo
H22 [14] = assay: Antitumor activity against mouse H22 cells implanted in Kunming mouse assessed as tumor growth inhibition at 10 mg/kg measured on day 7; type: functional; parameters: scale not given: the % may be the effect or the level left; conditions: time 7 day
H22 [15] = assay: Antitumor activity against mouse H22 cells implanted in Kunming mouse assessed as tumor growth inhibition at 10 mg/kg measured on day 7 by H and E staining based histopathological analysis; type: functional, organism-based; conditions: time 7.0 day
[16] = Prodrug release assessed as stability after 24 hrs in presence of NADH by LC-MS analysis; type: ADME
HepG2 = assay: Cytotoxicity against human HepG2 cells at 10 to 80 uM after 24 hrs; type: cell-based; conditions: hepg2, 24 h, dose 10-80 µM
[17] = Drug distribution in Kunming mouse liver at 6 mg/kg, iv measured after 3 hrs by confocal scanning microscopic analysis; type: ADME, organism-based; conditions: in vivo
[18] = Drug distribution in Kunming mouse liver at 8.4 mg/kg, iv measured after 3 hrs by confocal scanning microscopic analysis; type: ADME, organism-based; conditions: in vivo

| Structure (SMILES) | Drug uptake [1] | Drug uptake [2] | Drug uptake [3] | Drug uptake [4] | Stability [5] | Stability [6] | Activity [7] | Activity [8] | Activity [9] | Activity [10] | Stability [11] | Drug uptake [12] | Drug uptake [13] | Activity (H22 [14]) [%] | Activity (H22 [15]) | Stability [16] [%] | Activity (HepG2) | Drug uptake [17] | Drug uptake [18] |
| --- | --- | --- | --- | --- | --- | --- | --- | --- | --- | --- | --- | --- | --- | --- | --- | --- | --- | --- | --- |
| C=C[C@]1(C)CC[C@@H](C(=C)Cn2cc(CN3C(=O)c4cccc5c(N6CCN(C(=O)OCCSSCCOCC(=O)NC(COCc7cn([C@@H]8O[C@H](CO)[C@H](O)[C@H](O)[C@H]8O)nn7)(COCc7cn([C@@H]8O[C@H](CO)[C@H](O)[C@H](O)[C@H]8O)nn7)COCc7cn([C@@H]8O[C@H](CO)[C@H](O)[C@H](O)[C@H]8O)nn7)CC6)ccc(c45)C3=O)nn2)C[C@H]1C(=C)C | Active | Active | Active | Active | Stable | Stable | Non-Toxic | Non-Toxic | Non-Toxic | Non-Toxic | Unstable | Not Active | Active | 51.22 | Active | 98.9 | Non-Toxic | – | – |
| C=C[C@]1(C)CC[C@@H](C(=C)Cn2cc(CN3C(=O)c4cccc5c(N6CCN(C(=O)OCCSSCCOCc7cn([C@@H]8O[C@H](CO)[C@H](O)[C@H](O)[C@H]8O)nn7)CC6)ccc(c45)C3=O)nn2)C[C@H]1C(=C)C | Active | Active | Active | Active | – | – | – | – | – | – | – | Not Active | – | – | – | – | – | Active | – |
| C=C[C@]1(C)CC[C@@H](C(=C)Cn2cc(CN3C(=O)c4cccc5c(N6CCN(C(=O)OCCSSCCOCC(=O)NC(COCc7cn([C@@H]8O[C@H](CO)[C@H](O)[C@H](O)[C@H]8O)nn7)COCc7cn([C@@H]8O[C@H](CO)[C@H](O)[C@H](O)[C@H]8O)nn7)CC6)ccc(c45)C3=O)nn2)C[C@H]1C(=C)C | Active | Active | Active | Active | – | – | – | – | – | – | – | Not Active | – | – | – | – | Non-Toxic | – | Active |
